Measured values reported in US12630512B2, “Agents for differentiating stem cells and treating cancer” (Minerva Biotechnologies Corporation, priority 2017, dated 2026).

Columns and labels:
[1] = system: human primed state stem cells; assay: Stem cell drug screen on primed state stem cells (pluripotency, proliferation, differentiation); assay type: cell-based; details: primed state stem cells; 6 uM per FIGS. 46-64
Protocol: (§1) The stem cell screening assay, was performed in both the presence and absence of the stem cell growth factors: NME7AB for growing naïve stem cells or FGF for growing primed stem cells. If the cognate growth factor was present, then the biological or small molecule would have to compete away the growth factor to get an effect. Therefore, we expected to see more of an effect when the growth factor, FGF for primed stem cells or NME7AB or NME1 dimers for naïve stem cells, was absent. The effect of the compounds on stem cells was visually determined and compounds were ranked 0-4, with 4 being the greatest effect and 0 being no observable effect. The major effect that was observed was a change from pluripotent stem cell morphology, which is a cobblestone pattern of small round cells with a large nucleus to cytoplasm ratio, to that of differentiating stem cells, which are elongated, large and flattened cells with a smaller nucleus to cytoplasm ratio. […] The compounds were added to a final concentration of 6 uM to either naïve state stem cells or primed state stem cells. In this particular case, the naïve state stem cells were maintained in a naïve state by culturing in a media containing NME7AB or NME1 dimers. However, other methods such as 2i and 5i (Silva et al., 2008, Nichols and Smith, 2009, Theunissen et al., 2014)] can be used to maintain stem cells in a more naïve state. In this case primed state stem cells were cultured in bFGF over a layer of MEFs, although it is known that any bFGF containing media will maintain stem cells in the primed state.
(§2) Percent inhibition of cancer cell migration was performed in a wound healing assay. The percent area that the invading cancer cells occupied, in the presence of a drug candidate compared to the controls, was quantified by Image J cell software which enables cell counting from photographs. IC50's were calculated by performing migration experiments at several compound concentrations and then applying Hill's equation. Inhibition of cancer cell proliferation was quantified by automated cell counting in the presence or absence of a drug candidate. Here, the inhibition of cancer cell proliferation was scored 1 if proliferation was inhibited by 25%, 2 if inhibited by […] and 4 for the highest degree of inhibition of proliferation, and 0 for the lowest. The effect of the drug candidates on stem cell pluripotency or proliferation was scored by eye, based on cell morphology and cell density, with 0 being no change in morphology or cell number and 4 being the most profound effect, with the stem cells taking on the morphology of a differentiating cell, along with much fewer cells indicative of inhibition of proliferation. As an example, FIGS. 30A-30F show photographs of naïve stem cell, primed stem cell and fibroblast controls. FIGS. 31A-31F show the effect of compounds of the invention on naïve state stem cells, where the number of ‘+’ signs indicates the score from 0-4 of ability of compound to inhibit pluripotency, proliferation of naïve stem cells or ability to induce their differentiation. […] FIGS. 36-44 and 65-87 show photographs and IC50 graphs of the compounds of the invention, inhibiting cancer cell migration and invasion. Cancer cell migration is a hallmark of metastatic cancer.
Stem cells whether embryonic or induced pluripotent stem (iPS) cells were cultured in a minimal, serum-free media that contained human recombinant bFGF at a concentration of 8 ng/mL. The stem cells were plated over a layer of inactivated mouse embryonic fibroblasts, aka MEFs, which secrete additional uncharacterized growth factors and cytokines.
Human naïve state and primed stem cells were cultured in parallel for at least 5 passages to guarantee normal differentiation-free growth. The stem cells were plated in 12-well cell culture plates with 50,000 cells per well. Cells were cultured in their respective media, either bFGF media or NME7AB media for 24 hours. […]

[2] = system: human naïve state stem cells; assay: Stem cell drug screen on naïve state stem cells (pluripotency, proliferation, differentiation); assay type: cell-based; parameters: key to score for inhibition of naïve stem cell pluripotency and proliferation: 0 being no change in morphology or cell number; 4 being the most profound effect; details: naïve state stem cells; for inhibition at 6 µM: Homo sapiens, 6 uM final concentration per FIGS. 46-64, read-out: inhibited naïve stem cell pluripotency and proliferation; for score for inhibition of naïve stem cell pluripotency and proliferation: scored by eye 0-4, 6 uM per FIGS. 46-64
Protocol: as §1, §2
Stem cells whether embryonic or induced pluripotent stem (iPS) cells were cultured in a minimal, serum-free media that contained human recombinant NME7AB at a concentration of 2-32 nM wherein 4-8 nM is preferred and 4 nM is more preferred. To facilitate surface attachment, cell culture plates were coated with an anti-MUC1* monoclonal antibody called MN-C3 or C3 or MN-C8 at a concentration of 2-100 μg/mL coating solution, wherein 3-50 ug/mL is preferred and 6-12.5 ug/mL is more preferred. In these experiments, 12.5 ug/mL of MN-C3 was used. Antibody coated plates were incubated at 4 degrees C. overnight prior to plating stem cells. A Rho kinase I inhibitor was added to enhance surface attachment. […]

[3] = system: micro-RNA-145; assay: RT-PCR measurement of miR-145 in T47D cancer cells; assay type: cell-based, human; details: treated for 72 hours (FIG. 92A-92C)
Protocol: FIGS. 92A-92C show graphs of RT-PCR measurement of T47D cancer cells treated for 72 hours with compounds of the invention at the indicated concentrations, wherein the gene that is measured is micro-RNA-145, which is a harbinger of stem cell differentiation
We used RT-PCR to measure changes in the expression of some of these super-enhancer genes, AXIN2, which is a surrogate for activated β-catenin, miR-145, MUC1 and MUC1* ligands NME7AB and NME7-X1. […] Thus, compounds of the invention, at least in part, inhibit tumor cell migration and invasiveness by inducing expression of genes that are critical for differentiation, some of which are super-enhancer target genes, and miR-145, while decreasing expression of β-catenin, MUC1 and its growth factor NME7AB. Novel compounds of the invention are powerful agents for the treatment or prevention of cancers and metastatic cancers. […] In one aspect of the invention, a biological sample from a patient is tested for the presence of MUC1*, NME7AB or NME7-X1, and upon finding that the patient's cancer is positive for MUC1*, NME7AB or NME7-X1, a compound of the invention is administered to the patient in an amount suitable to prevent or treat the cancer. In one instance, the patient sample is subjected to a test, such as PCR, to determine the amount of nucleic acid that encodes MUC1, NME7 or NME7-X1. […] In another aspect of the invention, the patient's cancer is considered to be MUC1* positive, NME7AB positive or NME7-X1 positive if expression of those genes is equal to or greater than 0.5% of EEF1A1 expression in those cells. In yet another aspect of the invention, the patient's cancer is considered to be MUC1* positive if the patient's tissue specimen is contacted with an antibody that binds to the PSMGFR peptide or the N-10 peptide and stains the tissue with a pathologist's standard score 1-4 (“+−++++”). […]

Compound | effect on primed state stem cells [1] | inhibition at 6 µM [2] [%] | score for inhibition of naïve stem cell pluripotency and proliferation [2] | expression of miR-145 in T47D cancer cells [3]
CN(CC1CCC(C(=O)N2CCC(c3ccncc3)CC2)CC1)C(=O)OC(C)(C)C (stereo not drawn) [MN1428, Tert-butyl methyl((4-(4-(pyridin-4-yl)piperidine-1-carbonyl)cyclohexyl)methyl)carbamate] | no effect | 100 | 4 | increased expression of miR-145 in cancer cells
CN(C[C@H]1CC[C@H](C(=O)N2CCc3c([nH]c4ccccc34)C2C2CC2)CC1)C(=O)NC(C)(C)C (stereo partly drawn) [MN1413] | no effect | 100 | 4 | increased expression of miR-145 in cancer cells
C[C@@H]1Cc2c([nH]c3ccccc23)CN1C(=O)C1CCC(CN(C)C(=O)NC(C)(C)C)CC1 (stereo partly drawn) [MN1423] | no effect | 100 | 4 | increased expression of miR-145 in cancer cells
